Test results as given in patent US20190328869A1, “IMMUNOTHERAPEUTIC PRODUCT AND MDSC MODULATOR COMBINATION THERAPY” (Transgene SA, priority 2016, published 2019).

Columns and labels:
HBV DNA (AAV2/8-HBV) = test: Serum HBV DNA (viral load) by qPCR in HBV-persistent mice; format: in vivo, C57BL/6J mice; details: sildenafil only 5, 20 or 80 mg/kg/day (groups b to d), over the experiment
Method: Graph A illustrates the median level of HBsAg determined in the serum of groups of 10 mice (groups a to h) treated with sildenafil at 5 mg/kg/day (group b), at 20 mg/kg/day (group c), or at 80 mg/kg/day (group d) alone, or with AdTG18201 (group e) alone or with a combination of AdTG18201 and sildenafil (at 5, 20, or 80 mg/kg/day, groups f, g and h, respectively). The control group a is untreated. The Y-axis indicates the median HBsAg level (ng/mL) for each group and the X-axis the time (number of days post-AAV2/8-HBV injection). Graph B illustrates the median level of HBV DNA determined in the serum of the same groups of mice by PCR. […]
The HBV persistent mice used in the study were described by Dion et al. (2013, J Virol, 87(10):5554-63). […] This allows the analysis of HBV-specific viral parameters (HBsAg, HBeAg, HBcAg and viremia) as well as immunological read-outs (ICS, ELISpot or humoral immune responses). […]
HBV DNA copy number was determined in samples using the PrimerDesign™ Genesig Advanced Kit for Hepatitis B (ref. Path-HBV, PrimerDesign) and the 7500 real time system from Applied Biosystems. Data were analyzed using the 7500 System SDS software v2.0.6. […]
The Quantitect Multiplex PCR kit (ref. 204545, Qiagen) was used to carry out the qPCR reactions. […]
The limit of quantification (LOQ) was 100 DNA copies per reaction and the limit of detection (LOD) was 10 copies per reaction. […]

HBV RNA (AAV2/8-HBV) = test: Serum HBV RNA by RT-qPCR in HBV-persistent mice; format: in vivo, C57BL/6J mice; details: sildenafil only 5 mg/kg/day (group b), over the experiment
Method: The graph illustrates the median level of HBV RNA determined in the serum of 6 mice per group (groups a, b, e and f) treated with sildenafil at 5 mg/kg/day (group b) or with AdTG18201 alone (group e) or with a combination of AdTG18201 and sildenafil (at 5 mg/kg/day, group f). The control group a is untreated. The Y-axis indicates the median HBV RNA level (log 10 copies/mL) and the X-axis the time (number of days post-AAV2/8-HBV injection). Time points of AdTG18201 immunization (D36, D43, D50) are shown by a dashed line and the period of sildenafil treatment (from D31 to 59) is shown by a horizontal bar on the X axis.
HBV DNA/RNA extraction was performed using the MagMax-96 viral RNA isolation kit from Ambion according to manufacturer's protocol. Briefly, 50 μL of serum was added to 20 μL of reconstituted RNA/DNA binding beads. Plate was shaken for 1 minute on a thermomixer (Eppendorf Thermomixer compact) at 600-700 rpm. Then, 130 μL of lysis/binding solution, spiked with qPCR kit internal extraction control DNA, were added before additional shaking for 10 minutes. Beads were captured on a magnetic stand for 3 minutes and after 4 washes the supernatant was discarded. Residual washing solution was removed by drying the beads (shaking of the plate for 3 minutes at 900 rpm). Then, 50 μL of elution buffer was added (shaking of the plate for 3 minutes at 900 rpm). […]

CT26-MUC1 cells = test: Survival in CT26 colon cancer tumor model; format: in vivo, BALB/c mice; details: 44 days post tumor implantation; MVATG9931 5×10^7 pfu day 2 and 9; sildenafil 80 mg/kg/day drinking water day 0 to 28; 12 mice per group
melanoma = melanoma bearing mice; cited from earlier work

## CCCc1nn(C)c2c(=O)nc(-c3cc(S(=O)(=O)N4CCN(C)CC4)ccc3OCC)[nH]c12 [sildenafil, 1-[[3-(4,7-dihydro-1-methyl-7-oxo-3-propyl-1H-pyrazolo[4,3-d]pyrimidin-5-yl)-4-ethoxyphenyl]sulfonyl]-4-methylpiperazine]
HBV DNA (AAV2/8-HBV)
  median level of viral DNA: around 10^5 copies/mL serum
HBV RNA (AAV2/8-HBV)
  median level of viral RNA: around 4.5 log 10 copies/mL serum
CT26-MUC1 cells
  mice still alive (survival): 20%
melanoma
  concentration of inflammatory mediators (IL-1β, IL-6, VEGF, GM-CSF, MCP-1) in melanoma lesions: significantly diminished
  tumor progression: delay tumor progression
